Assay results reported in PubChem BioAssay AID1963830 (Molecular Pharmacology Branch, DTP, NCI, 2024).

Test system: 922993-354-T-J3-PDC complex spheroid viability
Test: Anticancer human tumor 922993-354-T-J3-PDC patient-derived endometrial carcinoma cell line growth inhibition [POLQ]
Conditions: for IC50: curve of first compound; for viability, T/C: stronger effect = lower value
Procedure, shortened: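 PDC + HUVEC + MSC complex spheroids; POLQ inhibitors ± partner drugs; top conc. at/near clinical Cmax, else 10 microM (SN-38 1 microM), half-log dilutions; 37 degrees C, 5% CO2.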

[1] = second compound 0.0316 µM, first compound 0.0316 µM
[2] = second compound 0.0316 µM, first compound 0.1 µM
[3] = second compound 0.0316 µM, first compound 0.316 µM
[4] = second compound 0.0316 µM, first compound 1 µM
[5] = second compound 0.0316 µM, first compound 3.16 µM
[6] = second compound 0.0316 µM, first compound 10 µM
[7] = second compound 0.1 µM, first compound 0.0316 µM
[8] = second compound 0.1 µM, first compound 0.1 µM
[9] = second compound 0.1 µM, first compound 0.316 µM
[10] = second compound 0.1 µM, first compound 1 µM
[11] = second compound 0.1 µM, first compound 3.16 µM
[12] = second compound 0.1 µM, first compound 10 µM
[13] = second compound 0.316 µM, first compound 0.0316 µM
[14] = second compound 0.316 µM, first compound 0.1 µM
[15] = second compound 0.316 µM, first compound 0.316 µM
[16] = second compound 0.316 µM, first compound 1 µM
[17] = second compound 0.316 µM, first compound 3.16 µM
[18] = second compound 0.316 µM, first compound 10 µM
[19] = second compound 1 µM, first compound 0.0316 µM
[20] = second compound 1 µM, first compound 0.1 µM
[21] = second compound 1 µM, first compound 0.316 µM
[22] = second compound 1 µM, first compound 1 µM
[23] = second compound 1 µM, first compound 3.16 µM
[24] = second compound 1 µM, first compound 10 µM
[25] = second compound 3.16 µM, first compound 0.0316 µM
[26] = second compound 3.16 µM, first compound 0.1 µM
[27] = second compound 3.16 µM, first compound 0.316 µM
[28] = second compound 3.16 µM, first compound 1 µM
[29] = second compound 3.16 µM, first compound 3.16 µM
[30] = second compound 3.16 µM, first compound 10 µM
[31] = second compound 10 µM, first compound 0.0316 µM
[32] = second compound 10 µM, first compound 0.1 µM
[33] = second compound 10 µM, first compound 0.316 µM
[34] = second compound 10 µM, first compound 1 µM
[35] = second compound 10 µM, first compound 3.16 µM
[36] = second compound 10 µM, first compound 10 µM
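Further: spheroids exposed to the agents for one week.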
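Wherever viability, T/C is given: 100% = DMSO vehicle control wells.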

COc1cc(C2c3cc4c(cc3C(OC3OC5COC(C)OC5C(O)C3O)C3COC(=O)C23)OCO4)cc(OC)c1O (stereo unspecified) + Nc1ccc(C#CCN(C(=O)Cc2ncc(C(F)(F)F)cc2C(F)(F)F)c2ccc(F)cc2)nn1
IC50 (second compound 0.0316 µM): > 10 µM
IC50 (second compound 0.1 µM): > 10 µM
IC50 (second compound 0.316 µM): > 10 µM
IC50 (second compound 1 µM): > 10 µM
IC50 (second compound 3.16 µM): > 10 µM
IC50 (second compound 10 µM): 4.39 µM
viability, T/C [1]: 108%
viability, T/C [2]: 106%
viability, T/C [3]: 101%
viability, T/C [4]: 105%
viability, T/C [5]: 90.9%
viability, T/C [6]: 81%
viability, T/C [7]: 103%
viability, T/C [8]: 102%
viability, T/C [9]: 104%
viability, T/C [10]: 98.2%
viability, T/C [11]: 97.4%
viability, T/C [12]: 71.4%
viability, T/C [13]: 101%
viability, T/C [14]: 105%
viability, T/C [15]: 100%
viability, T/C [16]: 104%
viability, T/C [17]: 94.2%
viability, T/C [18]: 76%
viability, T/C [19]: 105%
viability, T/C [20]: 103%
viability, T/C [21]: 103%
viability, T/C [22]: 100%
viability, T/C [23]: 96.1%
viability, T/C [24]: 77%
viability, T/C [25]: 103%
viability, T/C [26]: 97.2%
viability, T/C [27]: 98%
viability, T/C [28]: 95.6%
viability, T/C [29]: 88%
viability, T/C [30]: 67.6%
viability, T/C [31]: 100%
viability, T/C [32]: 90.5%
viability, T/C [33]: 91.2%
viability, T/C [34]: 75.1%
viability, T/C [35]: 62.2%
viability, T/C [36]: 25.3%

O=C(Nc1ccc(O)c(NS(=O)(=O)c2ccc(F)cc2)c1)c1ccc(-c2ccccc2)cc1 + Nc1ccc(C#CCN(C(=O)Cc2ncc(C(F)(F)F)cc2C(F)(F)F)c2ccc(F)cc2)nn1
IC50 (second compound 0.0316 µM): > 10 µM
IC50 (second compound 0.1 µM): > 10 µM
IC50 (second compound 0.316 µM): > 10 µM
IC50 (second compound 1 µM): > 10 µM
IC50 (second compound 3.16 µM): > 10 µM
IC50 (second compound 10 µM): > 10 µM
viability, T/C [1]: 99.8%
viability, T/C [2]: 107%
viability, T/C [3]: 99.4%
viability, T/C [4]: 102%
viability, T/C [5]: 105%
viability, T/C [6]: 96.2%
viability, T/C [7]: 101%
viability, T/C [8]: 97.6%
viability, T/C [9]: 99.4%
viability, T/C [10]: 97.6%
viability, T/C [11]: 99.1%
viability, T/C [12]: 102%
viability, T/C [13]: 100%
viability, T/C [14]: 100%
viability, T/C [15]: 99.1%
viability, T/C [16]: 95.1%
viability, T/C [17]: 103%
viability, T/C [18]: 105%
viability, T/C [19]: 102%
viability, T/C [20]: 94.8%
viability, T/C [21]: 104%
viability, T/C [22]: 93%
viability, T/C [23]: 105%
viability, T/C [24]: 99%
viability, T/C [25]: 101%
viability, T/C [26]: 97.7%
viability, T/C [27]: 100%
viability, T/C [28]: 97.4%
viability, T/C [29]: 105%
viability, T/C [30]: 103%
viability, T/C [31]: 97.6%
viability, T/C [32]: 99.7%
viability, T/C [33]: 95%
viability, T/C [34]: 99.1%
viability, T/C [35]: 103%
viability, T/C [36]: 102%

CC1COCCN1c1cc(C2(O)CC3CCC(C2)O3)c2cnn(-c3ccn[nH]3)c2n1 (stereo unspecified) + Cc1cccc(N(C)C(=O)C2C(O)CCN2c2nc(C)cc(C(F)(F)F)c2C#N)c1
IC50 (second compound 0.0316 µM): 0.439 µM
IC50 (second compound 0.1 µM): 0.457 µM
IC50 (second compound 0.316 µM): 0.58 µM
IC50 (second compound 1 µM): 0.51 µM
IC50 (second compound 3.16 µM): 0.39 µM
IC50 (second compound 10 µM): 0.166 µM
viability, T/C [1]: 104%
viability, T/C [2]: 77%
viability, T/C [3]: 61.6%
viability, T/C [4]: 33.6%
viability, T/C [5]: 10.6%
viability, T/C [6]: 8.67%
viability, T/C [7]: 109%
viability, T/C [8]: 93.7%
viability, T/C [9]: 63.9%
viability, T/C [10]: 23.2%
viability, T/C [11]: 10.3%
viability, T/C [12]: 10.8%
viability, T/C [13]: 110%
viability, T/C [14]: 101%
viability, T/C [15]: 75.5%
viability, T/C [16]: 27.5%
viability, T/C [17]: 11.6%
viability, T/C [18]: 10.9%
viability, T/C [19]: 97.3%
viability, T/C [20]: 89.5%
viability, T/C [21]: 67.9%
viability, T/C [22]: 25.8%
viability, T/C [23]: 9.46%
viability, T/C [24]: 10.4%
viability, T/C [25]: 101%
viability, T/C [26]: 89.2%
viability, T/C [27]: 57.1%
viability, T/C [28]: 20.7%
viability, T/C [29]: 8.74%
viability, T/C [30]: 9.75%
viability, T/C [31]: 101%
viability, T/C [32]: 64.6%
viability, T/C [33]: 32.5%
viability, T/C [34]: 10.3%
viability, T/C [35]: 8.71%
viability, T/C [36]: 9.69%
